pIC50: −log10 of the molar value.
Molecular target: T1, Stearoyl-CoA desaturase (SCD) (Rattus norvegicus, UniProt P07308)
T1 construct: from tissue; host or cells: liver microsomes of male Sprague Dawley rats, SCD induced by carbohydrate-rich diet
T1 sequence (P07308 1-358): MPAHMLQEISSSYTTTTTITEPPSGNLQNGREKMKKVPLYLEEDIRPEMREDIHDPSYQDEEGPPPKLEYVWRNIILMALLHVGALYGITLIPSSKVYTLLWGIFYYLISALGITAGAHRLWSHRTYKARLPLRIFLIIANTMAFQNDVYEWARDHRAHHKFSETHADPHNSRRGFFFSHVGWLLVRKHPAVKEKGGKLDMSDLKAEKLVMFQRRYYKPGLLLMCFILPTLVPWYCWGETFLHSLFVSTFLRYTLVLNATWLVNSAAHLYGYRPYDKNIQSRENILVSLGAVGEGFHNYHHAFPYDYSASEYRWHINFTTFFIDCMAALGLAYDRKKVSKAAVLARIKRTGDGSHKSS
Assay: SCD assay in rat liver microsomes ([3H]stearoyl CoA desaturation, adapted from Talamo and Bloch)
Assay type: biochemical
Conditions: rat liver microsomes 0.2 mg/ml final, 30 min preincubation, 45 min reaction at room temperature
Source text: The identification of compounds of the invention as SCD inhibitors was readily accomplished using the SCD enzyme and microsomal assay procedure described in Talamo and Bloch (1969) Analytical Biochemistry 29:300-304.
The rat liver microsomes were collected according to the procedure described in Ozols (1990) Methods Enzm, 182:225.
Male Spraque Dawley Rats were placed on regimented fasting protocol for one week to stimulate SCD enzymatic activity. 48-hour periods were alternated between feeding and fasting to induce and down-regulate SCD activity with SCD activity being induced via carbohydrate rich diet prior to liver perfusion and collection.
The rats were anesthetized with Isoflurane inhalation anesthetic, the liver perfused with cold phosphate buffered saline (PBS), weighed, and chilled in cold homogenization buffer (250 mM sucrose, 10 mM Tris, 1 mM EDTA, pH 7.6).
The livers were finely minced and placed in homogenization tube. Homogenization buffer (40 mL) was added to the homogenization tube and the liver homogenized and centrifuged in a pre-chilled […] for 10 min at 4° C.
Following centrifugation, the supernatant was collected and the pellet removed and discarded. The supernatant was centrifuge at 10,000 G for 35 minutes. Following centrifugation, the supernatant was collect and the pellet discarded. The supernatant was then centrifuged in a pre-chilled 45-Ti rotor at 130,000 G (41,000 RPM) for 90 minutes at 4° C.
The supernatant was then aspirated off and the collected microsomal pellet washed in 25 mL of Glycerol PBS (1×PBS 7.4, 20% Glycerol) and resuspended in 4-5 volumes of Glycerol PBS.
The protein concentration of the microsomal preparation was determined by BCA assay (Pierce) and the microsomes were aliquoted and stored at −80° C.
Biobeads were ground to a smaller size in a mortar and pestle and resuspended in 3.6% TCA. The beads were then filtered through […] mesh.
SCD was determined in the desaturase assay buffer. This assay buffer contained 0.1 M Tris buffer, pH 7.2, 2 mM NADH, 4.8 mM ATP, 0.5 mM CoA, 4.8 mM MgCl2, and 0.1% BSA.
The Procedure for the SCD Assay (Adapted from Talamo and Bloch (1969) Analytical Biochemistry 29:300-304)
1 μl of each compound of Formula I was added to an assay plate by a low volume (0.5-10 μL) multichannel pipette. A DMSO control was also prepared. The microsomes were quickly thawed and added to assay buffer so that a concentration of 0.4 mg/ml was achieved (0.2 mg/ml assay final). 50 μl of the microsome suspension in assay buffer was then added into each well in the compound assay plate, the plate was covered, and the microsomes preincubated with the compounds for 30 minutes on the orbital shaker, 50-75 rpm, at room temperature.
After preincubation, the reaction was initiated by the addition of 50 μl of substrate solution (20 μM Stearoyl CoA, [3H]Stearoyl CoA, 74 nCi) to the preincubated microsomes/compound suspensions in MilliQ (Millipore) H2O. The reaction mixtures were then incubated for 45 minutes on the orbital shaker at 50-75 rpm at room temperature.
The reaction was terminated by the addition of 10 μl of 21% trichloroacetic acid (TCA) to the reaction mixture followed incubation on the orbital shaker for 30 minutes at 50-75 rpm at room temperature followed by centrifugation for 5 minutes at 3700 rpm.
50 μl of a 6% Bio-Bead suspension in H2O was added to the reaction mixture and the assay plate was sealed. The Bio-Bead mixture was incubated on the orbital shaker for 1 hour, 100-150 rpm at room temperature, and then the mixture was centrifuged at 2000 g for 5 minutes to pellet the Bio-Beads.
25 μl of the supernatant was harvested from each well and transferred to a detection plate. 100 μl of OptiPhase SuperMix scintillation cocktail (containing sufficient NaOH to neutralize the TCA) was added and the solutions mixed by vigorous shaking (300-400 rpm) for 5 minutes at room temperature.

O=C(CO)Nc1cc2c(=O)n(CCOc3ccccc3Cl)cnn2c1 [N-(3-(2-(2-chlorophenoxy)ethyl)-4-oxo-3,4-dihydropyrrolo[1,2-f][1,2,4]triazin-6-yl)-2-hydroxyacetamide] was tested, and the pIC50 was 5.25.

For O=C(Nc1cc2c(=O)n(Cc3ccc(Cl)c(Cl)c3)cnn2c1)C(O)CO (stereo not drawn) [N-(3-(3,4-dichlorobenzyl)-4-oxo-3,4-dihydropyrrolo[1,2-f][1,2,4]triazin-6-yl)-2,3-dihydroxypropanamide], the pIC50 was 8.00.

With O=C(CO)Nc1cc2c(=O)n(Cc3ccc(Cl)c(Cl)c3)cnn2c1 [N-(3-(3,4-dichlorobenzyl)-4-oxo-3,4-dihydropyrrolo[1,2-f][1,2,4]triazin-6-yl)-2-hydroxyacetamide] the pIC50 was 6.60.

With CCCCCCC(=O)Nc1cc2c(=O)n(Cc3ccc(Cl)c(Cl)c3)cnn2c1 [N-(3-(3,4-dichlorobenzyl)-4-oxo-3,4-dihydropyrrolo[1,2-f][1,2,4]triazin-6-yl)heptanamide] the pIC50 was 4.57.

In the case of O=C(CO)Nc1cc2c(=O)n(CCCOc3cc(Cl)ccc3Cl)cnn2c1 [N-(3-(3-(2,5-dichlorophenoxy)propyl)-4-oxo-3,4-dihydropyrrolo[1,2-f][1,2,4]triazin-6-yl)-2-hydroxyacetamide], the pIC50 was 6.62.

Compound O=C(CO)Nc1cc2c(=O)n(Cc3ccc(Cl)c(C(F)(F)F)c3)cnn2c1 [N-(3-(4-chloro-3-(trifluoromethyl)benzyl)-4-oxo-3,4-dihydropyrrolo[1,2-f][1,2,4]triazin-6-yl)-2-hydroxyacetamide] has a pIC50 of 6.49.

For O=C(Nc1cc2c(=O)n(CCc3ccc(Cl)cc3)cnn2c1)C(O)CO (stereo not drawn) [N-(3-(4-chlorophenethyl)-4-oxo-3,4-dihydropyrrolo[1,2-f][1,2,4]triazin-6-yl)-2,3-dihydroxypropanamide], the pIC50 was 6.08.

Compound O=C(CO)Nc1cc2c(=O)n(CCc3ccc(Cl)cc3)cnn2c1 [N-(3-(4-chlorophenethyl)-4-oxo-3,4-dihydropyrrolo[1,2-f][1,2,4]triazin-6-yl)-2-hydroxyacetamide] has a pIC50 of 4.85.

For O=C(Nc1cc2c(=O)n(Cc3ccc(Cl)c(Cl)c3)cnn2c1)OCc1ccccc1 [benzyl 3-(3,4-dichlorobenzyl)-4-oxo-3,4-dihydropyrrolo[1,2-f][1,2,4]triazin-6-ylcarbamate], the pIC50 was 5.80.
